Laboratory results published in ChEMBL document CHEMBL1201862, “PubChem BioAssay data set” (2004).
Activity calls are given as the source filed them.

Columns and labels:
[1] = biological target: T1, Estrogen receptor (Homo sapiens, UniProt P03372);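 further: potency for inhibiting coactivator peptide recruitment to the receptor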
T1 sequence (P03372 whole entry): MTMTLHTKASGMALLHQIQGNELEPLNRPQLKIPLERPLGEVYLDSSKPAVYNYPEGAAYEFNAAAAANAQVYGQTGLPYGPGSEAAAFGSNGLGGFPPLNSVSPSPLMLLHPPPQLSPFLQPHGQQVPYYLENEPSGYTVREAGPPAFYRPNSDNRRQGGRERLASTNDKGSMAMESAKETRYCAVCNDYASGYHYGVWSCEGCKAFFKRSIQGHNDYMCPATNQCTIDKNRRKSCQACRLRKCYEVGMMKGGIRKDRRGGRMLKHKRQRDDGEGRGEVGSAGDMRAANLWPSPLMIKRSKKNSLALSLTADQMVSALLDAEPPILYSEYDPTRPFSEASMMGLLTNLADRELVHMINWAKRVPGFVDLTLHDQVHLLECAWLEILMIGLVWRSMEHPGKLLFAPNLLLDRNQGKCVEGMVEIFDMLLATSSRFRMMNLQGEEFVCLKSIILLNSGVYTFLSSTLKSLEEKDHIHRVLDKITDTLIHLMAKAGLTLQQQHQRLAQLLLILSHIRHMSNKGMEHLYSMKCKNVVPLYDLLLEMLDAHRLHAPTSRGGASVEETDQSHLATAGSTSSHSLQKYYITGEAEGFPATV

[2] = biological target: T2, RNA-binding protein pos-1 (Caenorhabditis elegans, UniProt G5EF15); experiment: inhibitors of POS-1/mex-3 RNA binding, dose response, biochemical, fluorescence polarization (AID 1964);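 further: purified POS-1 fused to maltose binding protein made in E. coli; potency of compounds blocking POS-1 binding to fluorescent RNA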
T2 sequence (G5EF15 whole entry): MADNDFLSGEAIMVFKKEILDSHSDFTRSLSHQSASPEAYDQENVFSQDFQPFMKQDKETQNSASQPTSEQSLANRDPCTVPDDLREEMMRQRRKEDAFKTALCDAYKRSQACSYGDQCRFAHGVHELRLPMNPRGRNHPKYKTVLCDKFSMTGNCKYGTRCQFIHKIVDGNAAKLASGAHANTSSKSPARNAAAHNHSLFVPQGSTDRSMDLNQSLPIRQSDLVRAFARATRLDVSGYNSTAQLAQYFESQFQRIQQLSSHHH

[3] = biological target: T3, Zinc finger protein mex-5 (Caenorhabditis elegans, UniProt Q9XUB2); experiment: MEX-5/TCR-2 RNA interaction inhibitors, dose response, biochemical, C. elegans, fluorescence polarization (AID 1960)
T3 sequence (Q9XUB2 whole entry): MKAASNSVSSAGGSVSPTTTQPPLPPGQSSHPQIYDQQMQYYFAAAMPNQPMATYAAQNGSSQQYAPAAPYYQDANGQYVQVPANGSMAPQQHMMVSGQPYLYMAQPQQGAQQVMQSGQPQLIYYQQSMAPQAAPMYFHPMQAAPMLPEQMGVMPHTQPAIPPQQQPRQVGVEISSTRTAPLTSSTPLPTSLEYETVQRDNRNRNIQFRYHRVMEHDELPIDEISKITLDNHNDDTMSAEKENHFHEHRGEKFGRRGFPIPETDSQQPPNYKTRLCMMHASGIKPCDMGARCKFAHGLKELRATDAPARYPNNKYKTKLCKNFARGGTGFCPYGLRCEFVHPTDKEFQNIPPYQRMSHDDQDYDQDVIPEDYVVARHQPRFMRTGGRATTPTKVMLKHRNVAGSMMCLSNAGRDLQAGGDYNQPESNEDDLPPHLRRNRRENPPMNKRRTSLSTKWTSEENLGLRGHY

[4] = inhibitors of intracellular T. cruzi replication, confirmation, NIH3T3 host cells, beta-gal luminescence (AID 2044); format: functional, cell-based;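 further: intracellular parasites grown in NIH/3T3 mouse fibroblasts as host cells; luminescent beta-galactosidase reporter signal from transgenic T. cruzi replicating inside host cells; inhibitors lower the luminescence signal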
[5] = cytotoxicity toward NIH3T3 fibroblasts, dose response, counter-screen, cell-based, ATP luminescence, mouse fibroblasts (AID 2010); format: functional;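 further: cells exposed to compound for about 90 hours before reading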
[6] = biological target: Induced myeloid leukemia cell differentiation protein Mcl-1 (Homo sapiens, UniProt Q07820); format: functional
[7] = biological target: Nonstructural protein 1 (Influenza A virus, UniProt Q194T2); format: functional, Influenza A virus (A/California/07/2009(H1N1))
[8] = test system: BJ; experiment: cytotoxicity toward BJ-TERT fibroblasts, dose response, cell-based, RAS-independent, luminescence (AID 1933); format: functional; settings: Homo sapiens
[9] = test system: BJ; experiment: cells; format: functional, cell-based; settings: Homo sapiens
[10] = test system: BJ; experiment: cytotoxicity toward BJ-TERT-LT-ST fibroblasts, dose response, cell-based, RAS-independent, luminescence (AID 1935); format: functional; settings: Homo sapiens;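 further: BJ fibroblasts immortalized with TERT plus LT and ST oncogenes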
[11] = cytotoxicity toward DRD oncogenic fibroblasts, dose response, cell-based, non-viral oncogenic, luminescence (AID 1934); format: functional; settings: Homo sapiens
[12] = cytotoxicity in HEK-293T cells, dose response, cytotoxicity control for TCR NF-kB inhibitor project, luminescence, T-cell screen hits (AID 489026); format: functional, cell-based;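 further: cells exposed to compound about 14 hours before the viability readout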
[13] = HEp-2 cell cytotoxicity, dose response, cytotoxicity control for RSV inhibitor project, HTS (AID 2410); format: functional; settings: human respiratory syncytial virus
[14] = test system: Streptococcus sp. 'group A'; experiment: growth inhibition of control SK(-) GAS strain, dose response, counter-screen for streptokinase expression inhibitor project, luminescence, kanamycin, BacTiterGlo, confirmation (AID 1900); format: functional, organism-based
[15] = biological target: T4, Streptokinase A (Streptococcus pyogenes serotype M1, UniProt P10520); experiment: S. pyogenes streptokinase expression inhibitors, potency, dose response, plasminogen activation absorbance, OD405 (AID 1914); format: functional, Streptococcus pyogenes M1 GAS;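 further: secreted streptokinase activity via plasminogen activation per viability signal from cell pellet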
T4 sequence (P10520 whole entry): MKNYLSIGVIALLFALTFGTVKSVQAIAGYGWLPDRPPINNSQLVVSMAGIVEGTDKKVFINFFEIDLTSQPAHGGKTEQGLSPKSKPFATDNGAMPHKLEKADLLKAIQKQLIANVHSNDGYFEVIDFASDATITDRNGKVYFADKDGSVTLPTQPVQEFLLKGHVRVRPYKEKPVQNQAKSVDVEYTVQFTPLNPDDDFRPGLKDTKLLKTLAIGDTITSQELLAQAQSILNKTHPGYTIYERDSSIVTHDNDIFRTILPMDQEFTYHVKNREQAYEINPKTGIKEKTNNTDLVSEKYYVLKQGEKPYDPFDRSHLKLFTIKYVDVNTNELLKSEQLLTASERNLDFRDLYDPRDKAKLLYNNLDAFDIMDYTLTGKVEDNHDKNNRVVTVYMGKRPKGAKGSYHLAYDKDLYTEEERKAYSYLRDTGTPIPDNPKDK

[16] = test system: Streptococcus; experiment: Group A Streptococcus viability loss, dose response, counter-screen for streptokinase expression inhibitor project, luminescence, BacTiterGlo (AID 1915); format: functional, organism-based;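 further: potency for reduction of bacterial viability or growth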
[17] = biological target: Cytochrome P450 3A4 (Homo sapiens, UniProt P08684);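 further: CYP3A4 tested as one member of a cytochrome P450 panel screen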
[18] = growth suppression of PTEN-null colon cells, dose response, cell-based, HCT116 PTEN knockout (AID 1047); format: functional;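 further: HCT116 colon tumor cells with PTEN knocked out; cells exposed to compound for 60 hours before readout; potency for loss of cell viability measured by luminescence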
[19] = growth suppression of beta-catenin-knockout colon cells, dose response, cell-based, HCT116, human colon tumor (AID 1045); format: functional;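 further: HCT116 colon tumor cells with beta catenin knocked out; cells exposed to compound for 60 hours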
[20] = biological target: T5, Replicative DNA helicase DnaB (Mycobacterium tuberculosis, UniProt P9WMR3); experiment: DnaB intein splicing inhibitors, dose response, biochemical, cell-free fluorescence (AID 449749); format: functional
T5 sequence (P9WMR3 whole entry): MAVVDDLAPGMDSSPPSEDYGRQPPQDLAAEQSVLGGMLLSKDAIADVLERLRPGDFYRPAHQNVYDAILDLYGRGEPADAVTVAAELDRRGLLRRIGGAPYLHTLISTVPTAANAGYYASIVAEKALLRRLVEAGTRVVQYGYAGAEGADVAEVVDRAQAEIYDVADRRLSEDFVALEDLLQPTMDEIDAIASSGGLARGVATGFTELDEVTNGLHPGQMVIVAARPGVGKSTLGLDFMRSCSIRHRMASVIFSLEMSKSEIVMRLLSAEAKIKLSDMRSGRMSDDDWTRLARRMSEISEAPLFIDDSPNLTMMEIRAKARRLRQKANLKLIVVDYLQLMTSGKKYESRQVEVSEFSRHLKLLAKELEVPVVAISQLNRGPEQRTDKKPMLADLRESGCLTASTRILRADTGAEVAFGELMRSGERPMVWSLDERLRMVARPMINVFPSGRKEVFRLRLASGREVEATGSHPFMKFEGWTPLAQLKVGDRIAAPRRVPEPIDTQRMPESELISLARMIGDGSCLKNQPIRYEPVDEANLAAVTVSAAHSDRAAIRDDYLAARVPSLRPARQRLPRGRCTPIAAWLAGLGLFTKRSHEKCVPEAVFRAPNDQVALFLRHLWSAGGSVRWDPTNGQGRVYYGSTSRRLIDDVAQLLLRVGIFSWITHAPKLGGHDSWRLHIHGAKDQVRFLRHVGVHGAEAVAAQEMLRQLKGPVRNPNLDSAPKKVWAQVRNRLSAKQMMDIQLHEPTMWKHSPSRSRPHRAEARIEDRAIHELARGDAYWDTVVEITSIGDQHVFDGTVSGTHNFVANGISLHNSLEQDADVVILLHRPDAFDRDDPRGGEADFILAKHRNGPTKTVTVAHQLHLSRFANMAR

[21] = biological target: T6, Protein RecA (Mycobacterium tuberculosis, UniProt P9WHJ3); experiment: Fluorescence Cell-Free Homogeneous Dose Retest to Identify Inhibitors of RecA-Intein Splicing Activity. [Related pubchem assays (depositor defined):AID2097, AID2223, AID489010, AID492950]; format: functional
T6 sequence (P9WHJ3 whole entry): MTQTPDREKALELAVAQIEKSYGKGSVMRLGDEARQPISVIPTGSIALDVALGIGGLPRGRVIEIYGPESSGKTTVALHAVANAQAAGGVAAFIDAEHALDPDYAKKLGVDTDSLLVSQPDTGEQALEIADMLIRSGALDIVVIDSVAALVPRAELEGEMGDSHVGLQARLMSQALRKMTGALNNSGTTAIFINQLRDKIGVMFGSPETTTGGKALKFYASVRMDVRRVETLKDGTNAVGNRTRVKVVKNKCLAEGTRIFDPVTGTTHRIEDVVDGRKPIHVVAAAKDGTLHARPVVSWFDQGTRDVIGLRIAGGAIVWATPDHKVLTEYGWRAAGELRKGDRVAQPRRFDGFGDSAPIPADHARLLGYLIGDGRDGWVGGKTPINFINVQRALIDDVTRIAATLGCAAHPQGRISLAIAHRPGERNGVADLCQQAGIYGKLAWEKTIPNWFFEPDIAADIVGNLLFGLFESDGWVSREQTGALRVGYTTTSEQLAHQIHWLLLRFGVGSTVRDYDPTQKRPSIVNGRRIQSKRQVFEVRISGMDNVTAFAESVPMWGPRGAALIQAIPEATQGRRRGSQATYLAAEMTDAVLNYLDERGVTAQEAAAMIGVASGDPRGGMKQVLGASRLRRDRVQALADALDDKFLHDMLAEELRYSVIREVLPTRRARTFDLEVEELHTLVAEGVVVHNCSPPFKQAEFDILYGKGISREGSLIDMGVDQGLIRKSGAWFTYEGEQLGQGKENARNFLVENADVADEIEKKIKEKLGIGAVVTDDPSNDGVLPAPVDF

[22] = inhibitors of PGC1a acetylation in cells, dose response, cell-based, cherry-picked samples (AID 720514); format: functional;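 further: potency may reflect raised or lowered acetylation signal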
[23] = biological target: Cytochrome P450 2C19 (Homo sapiens, UniProt P33261); experiment: Cytochrome panel assay with activity outcomes. Panel member name: p450-cyp2c19 Compounds with AC50 equal or less than 10 uM are considered active; format: functional; settings: read-out: AC50
[24] = biological target: Cytochrome P450 2C9 (Homo sapiens, UniProt P11712)
[25] = test system: INS1; experiment: beta cell apoptosis inhibitors, cytokine rescue, dose response, luminescence, retest (AID 449756); format: functional, cell-based; settings: Rattus norvegicus;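 further: cell death triggered by IL-1 beta plus TNF-alpha plus IFN-gamma mixture; protective hits raise ATP signal compared with cytokine alone wells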

Nonstructural protein 1, sequence (Q194T2 whole entry): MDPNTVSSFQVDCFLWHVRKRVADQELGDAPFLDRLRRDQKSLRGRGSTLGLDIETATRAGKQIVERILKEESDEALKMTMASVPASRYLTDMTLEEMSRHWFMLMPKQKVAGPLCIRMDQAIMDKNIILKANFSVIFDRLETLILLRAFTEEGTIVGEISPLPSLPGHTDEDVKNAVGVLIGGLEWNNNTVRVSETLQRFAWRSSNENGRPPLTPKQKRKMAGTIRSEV
Cytochrome P450 2C9, sequence (P11712 whole entry): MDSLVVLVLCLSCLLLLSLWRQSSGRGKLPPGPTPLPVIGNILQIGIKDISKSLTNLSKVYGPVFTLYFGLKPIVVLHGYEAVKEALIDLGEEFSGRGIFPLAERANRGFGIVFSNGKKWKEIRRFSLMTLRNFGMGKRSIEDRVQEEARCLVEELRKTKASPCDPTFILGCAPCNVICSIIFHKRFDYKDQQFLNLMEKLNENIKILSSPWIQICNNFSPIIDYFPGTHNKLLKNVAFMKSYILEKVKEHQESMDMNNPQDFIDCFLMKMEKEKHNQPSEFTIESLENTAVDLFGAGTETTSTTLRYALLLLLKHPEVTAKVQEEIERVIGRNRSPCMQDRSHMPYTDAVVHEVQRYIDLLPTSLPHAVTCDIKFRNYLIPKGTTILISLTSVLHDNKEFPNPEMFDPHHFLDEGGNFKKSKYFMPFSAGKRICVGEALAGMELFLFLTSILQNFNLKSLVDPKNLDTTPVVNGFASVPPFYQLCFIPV
Cytochrome P450 3A4, sequence (P08684 whole entry): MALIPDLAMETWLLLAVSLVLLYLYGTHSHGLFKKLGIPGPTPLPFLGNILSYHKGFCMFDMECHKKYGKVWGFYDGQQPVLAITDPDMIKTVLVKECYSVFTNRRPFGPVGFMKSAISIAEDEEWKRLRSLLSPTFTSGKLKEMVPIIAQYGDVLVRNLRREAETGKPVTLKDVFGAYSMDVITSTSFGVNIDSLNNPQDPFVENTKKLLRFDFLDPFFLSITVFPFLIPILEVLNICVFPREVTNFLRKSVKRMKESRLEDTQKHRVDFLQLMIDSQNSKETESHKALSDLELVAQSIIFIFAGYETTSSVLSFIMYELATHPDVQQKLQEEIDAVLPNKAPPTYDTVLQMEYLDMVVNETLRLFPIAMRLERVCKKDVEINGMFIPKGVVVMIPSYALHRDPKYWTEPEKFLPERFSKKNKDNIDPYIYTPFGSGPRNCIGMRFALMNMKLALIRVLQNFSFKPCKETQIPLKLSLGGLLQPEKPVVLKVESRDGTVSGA
Induced myeloid leukemia cell differentiation protein Mcl-1, sequence (Q07820 whole entry): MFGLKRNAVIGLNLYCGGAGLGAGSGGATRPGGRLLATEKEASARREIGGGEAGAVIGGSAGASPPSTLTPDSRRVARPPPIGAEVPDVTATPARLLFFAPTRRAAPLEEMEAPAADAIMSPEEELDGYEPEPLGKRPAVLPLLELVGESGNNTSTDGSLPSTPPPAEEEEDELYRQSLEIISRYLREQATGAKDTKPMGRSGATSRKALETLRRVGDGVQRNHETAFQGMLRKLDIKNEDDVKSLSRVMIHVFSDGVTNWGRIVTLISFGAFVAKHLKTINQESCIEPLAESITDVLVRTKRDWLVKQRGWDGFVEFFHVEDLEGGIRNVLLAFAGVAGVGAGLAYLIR
Cytochrome P450 2C19, sequence (P33261 whole entry): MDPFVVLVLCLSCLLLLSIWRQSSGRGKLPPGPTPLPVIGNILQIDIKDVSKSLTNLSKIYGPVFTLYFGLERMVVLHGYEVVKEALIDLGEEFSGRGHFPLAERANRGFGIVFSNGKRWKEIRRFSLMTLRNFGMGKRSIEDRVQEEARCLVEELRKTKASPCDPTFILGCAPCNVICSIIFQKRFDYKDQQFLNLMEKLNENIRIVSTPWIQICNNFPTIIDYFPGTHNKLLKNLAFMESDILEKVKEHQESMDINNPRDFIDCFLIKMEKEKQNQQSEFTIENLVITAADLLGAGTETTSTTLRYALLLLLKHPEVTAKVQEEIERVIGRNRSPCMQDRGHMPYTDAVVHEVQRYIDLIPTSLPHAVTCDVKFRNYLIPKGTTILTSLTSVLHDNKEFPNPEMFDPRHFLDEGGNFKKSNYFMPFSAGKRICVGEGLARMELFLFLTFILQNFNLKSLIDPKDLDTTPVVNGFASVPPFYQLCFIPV

In the case of `COc1cccc2cc(-c3cn4ccc(C)cc4n3)c(=O)oc12`, the IC50 [1] is reported as 7.85 µM (active).

For `N=c1c(C(=O)NCc2ccc(F)cc2)cc2c(=O)n3ccccc3nc2n1Cc1cccnc1`, the EC50 [2] was 31.2 µM (inconclusive), the EC50 [3] was 46 µM (active) and the IC50 [1] was 7.04 µM (active). The EC50 [4] was 1.22 µM (active) and the EC50 [5] was > 60 µM (not active).

For `O=C1NN(c2ccc(Cl)c(Cl)c2)C(=O)/C1=C/c1cccc(OC(=O)c2cccs2)c1`, the IC50 [1] was > 50 µM (not active) and the IC50 [6] was 3.81 µM (active).

For `COc1cc(OC)c2c(-c3ccccc3)cc(=O)oc2c1C(CCN1CCCCC1)c1ccc(N(C)C)cc1` (stereo not given), the IC50 [7] was 11.9 µM (active).

In the case of `CCOC(=O)c1[nH]c2c(c1C)C(=O)CC(c1ccco1)C2` (stereo not given), the EC50 [8] is reported as 0.334 µM (active), the EC50 [9] is reported as 0.594 µM (active) and the IC50 [1] is reported as 30.3 µM (not active). The EC50 [10] was 0.354 µM (inconclusive), the EC50 [11] was 0.328 µM (active) and the IC50 [6] was 6.08 µM (active). For the same compound, the IC50 [12] was > 80 µM (inactive).

With `O=C1NC(=S)N(C2CC2)C(=O)/C1=C/NNC(=O)c1ccccc1Cl` the IC50 [7] was 20.4 µM (active).

In the case of `CC(C)(C)c1nnc(NC(=O)c2cc(-c3ccccc3)nc3ccccc23)s1`, the CC50 [13] is reported as 14.1 µM (active), the EC50 [14] is reported as 9.69 µM (active) and the EC50 [15] is reported as > 150 µM (not active). For the same compound, the EC50 [16] was 49.3 µM (active) and the AC50 [17] was “inconclusive”.

In the case of `Cc1ccc(Cn2ncc(Cl)c(Cl)c2=O)cc1`, the EC50 [18] is reported as 10.5 µM (active), the EC50 [19] is reported as 7.68 µM (active) and the AC50 [20] is reported as 14.3 µM (active). For the same compound, the EC50 [21] was 7.65 µM (active) and the AC50 [22] was 8.4 µM (active).

For `O=C(c1ccc(Cl)cc1)N1CCN(c2cc(O)nnc2-c2ccccc2)CC1`, the AC50 [23] was 1.41 µM (inconclusive), the AC50 [24] was 0.355 µM (inconclusive) and the AC50 [17] was “inconclusive”.

With `CCOc1ccccc1/C=c1\sc2nc(-c3ccco3)nn2c1=O` the IC50 [1] was > 50 µM (not active).

In the case of `Cc1ccc(C2C(/C=N/c3c(C)n(C)n(-c4ccccc4)c3=O)=C(c3ccccc3)Oc3ccccc32)cc1` (stereo not given), the IC50 [7] is reported as > 100 µM (active), the AC50 [23] is reported as 3.16 µM (inconclusive) and the AC50 [25] is reported as 6.97 µM (active). The AC50 [24] was 2.24 µM (inconclusive).
